# Results from the OligoGym collection.
# HELM strings list units from the 5' end as sugar, base in round brackets, then linkage (d deoxyribose, r ribose, m 2'-O-methyl, p phosphodiester). Strings are as the collection lists them, not checked against the first reports. ss, as = sense and antisense strand; [lna] = locked nucleic acid (LNA); [fl2r] = 2'-fluoro
# Conditions: siRNA
# Also: test system not given here.
substance,measurement,value
RNA1{r(C)p.r(U)p.r(U)p.r(A)p.r(C)p.r(G)p.r(C)p.r(U)p.r(G)p.r(A)p.r(G)p.r(U)p.r(A)p.r(C)p.r(U)p.r(U)p.r(C)p.r(G)p.r(A)p.r(T)p.r(T)}|RNA2{r(U)p.r(C)p.r(G)p.r(A)p.r(A)p.r(G)p.r(U)p.r(A)p.r(C)p.r(U)p.r(C)p.r(A)p.[lna](G)p.r(C)p.r(G)p.r(U)p.r(A)p.r(A)p.r(G)p.r(T)p.r(T)}$$$RNA1{StrandType:ss}|RNA2{StrandType:as}$,target mRNA knockdown,65%
RNA1{r(A)p.r(A)p.r(A)p.r(C)p.r(C)p.r(U)p.m(C)p.r(A)p.r(G)p.r(C)p.r(C)p.r(C)p.m(U)p.r(A)p.r(A)p.r(C)p.r(G)p.r(G)p.r(U)p.r(T)p.r(T)}|RNA2{r(A)p.r(C)p.r(C)p.r(G)p.r(U)p.m(U)p.r(A)p.r(G)p.r(G)p.r(G)p.r(C)p.m(U)p.r(G)p.r(A)p.r(G)p.r(G)p.r(U)p.r(U)p.r(U)p.r(T)p.r(T)}$$$RNA1{StrandType:ss}|RNA2{StrandType:as}$,target mRNA knockdown,70%
RNA1{r(C)p.r(C)p.r(C)p.r(C)p.r(A)p.r(G)p.r(G)p.m(U)p.r(A)p.r(A)p.r(C)p.r(G)p.r(A)p.r(U)p.r(U)p.r(U)p.r(U)p.r(C)p.r(U)p.r(T)p.r(T)}|RNA2{r(A)p.r(G)p.r(A)p.r(A)p.r(A)p.r(A)p.r(U)p.r(C)p.r(G)p.r(U)p.m(U)p.r(A)p.r(C)p.r(C)p.r(U)p.r(G)p.r(G)p.r(G)p.r(G)p.r(T)p.r(T)}$$$RNA1{StrandType:ss}|RNA2{StrandType:as}$,target mRNA knockdown,70%
RNA1{r(C)p.r(G)p.r(A)p.r(C)p.[fl2r](G)p.r(A)p.r(U)p.r(U)p.r(C)p.r(U)p.r(U)p.r(C)p.[fl2r](U)p.r(A)p.r(C)p.r(U)p.r(C)p.r(A)p.r(A)p.r(T)p.r(T)}|RNA2{r(U)p.[fl2r](U)p.r(G)p.r(A)p.r(G)p.[fl2r](U)p.r(A)p.r(G)p.r(A)p.r(A)p.r(G)p.r(A)p.r(A)p.r(U)p.r(C)p.r(G)p.r(U)p.r(C)p.r(G)p.r(T)p.r(T)}$$$RNA1{StrandType:ss}|RNA2{StrandType:as}$,target mRNA knockdown,62%
RNA1{r(U)p.r(C)p.[fl2r](C)p.r(A)p.r(A)p.r(G)p.r(C)p.r(U)p.r(U)p.r(C)p.r(C)p.r(U)p.r(C)p.r(G)p.r(U)p.[fl2r](U)p.[fl2r](G)p.r(G)p.r(U)p.r(T)p.r(T)}|RNA2{r(A)p.r(C)p.[fl2r](C)p.[fl2r](A)p.r(A)p.r(C)p.r(G)p.r(A)p.r(G)p.r(G)p.r(A)p.r(A)p.r(G)p.r(C)p.r(U)p.[fl2r](U)p.r(G)p.r(G)p.r(A)p.r(T)p.r(T)}$$$RNA1{StrandType:ss}|RNA2{StrandType:as}$,target mRNA knockdown,65%
RNA1{r(C)p.r(U)p.r(U)p.r(A)p.r(C)p.r(G)p.r(C)p.r(U)p.r(G)p.r(A)p.r(G)p.r(U)p.r(A)p.r(C)p.r(U)p.r(U)p.r(C)p.r(G)p.r(A)p.r(T)p.r(T)}|RNA2{r(U)p.r(C)p.r(G)p.r(A)p.r(A)p.r(G)p.r(U)p.r(A)p.r(C)p.r(U)p.r(C)p.r(A)p.r(G)p.[lna](C)p.r(G)p.r(U)p.r(A)p.r(A)p.r(G)p.r(T)p.r(T)}$$$RNA1{StrandType:ss}|RNA2{StrandType:as}$,target mRNA knockdown,43%
RNA1{r(G)p.r(G)p.r(A)p.r(A)p.r(G)p.r(U)p.r(C)p.m(C)p.m(A)p.r(C)p.r(C)p.m(U)p.m(U)p.r(C)p.r(U)p.r(C)p.r(C)p.r(G)p.r(A)p.r(T)p.r(T)}|RNA2{r(U)p.r(C)p.r(G)p.r(G)p.r(A)p.r(G)p.r(A)p.r(A)p.r(G)p.r(G)p.m(U)p.r(G)p.r(G)p.r(A)p.r(C)p.r(U)p.r(U)p.r(C)p.r(C)p.r(T)p.r(T)}$$$RNA1{StrandType:ss}|RNA2{StrandType:as}$,target mRNA knockdown,51%
RNA1{r(C)p.r(U)p.r(U)p.r(A)p.r(C)p.r(G)p.r(C)p.r(U)p.r(G)p.r(A)p.r(G)p.r(U)p.r(A)p.r(C)p.r(U)p.r(U)p.r(C)p.r(G)p.r(A)p.[lna](T)p.[lna](T)}|RNA2{[lna](T)p.r(C)p.r(G)p.r(A)p.r(A)p.r(G)p.r(U)p.r(A)p.r(C)p.r(U)p.r(C)p.r(A)p.r(G)p.r(C)p.r(G)p.r(U)p.r(A)p.r(A)p.r(G)p.[lna](T)p.[lna](T)}$$$RNA1{StrandType:ss}|RNA2{StrandType:as}$,target mRNA knockdown,27%
